Experiment [1] concerns histamine-induced guinea pig bronchoconstriction. Description: Effect on histamine-induced guinea pig bronchoconstriction models. In kind it is in vivo, male Hartley guinea pigs. As to conditions: inhalation for 30 seconds, hydrochloride, histamine 3 μg/kg i.v. after 2 minutes. How it is done:
After urethane anesthetization of male Hartley guinea pigs (body weight: 350~450 g, 5 per group, Nihon Crea Co.), a small cannula was inserted into trachea. Next, gallamine triethiodide (1 mg/kg) was intravenously administered, and the tracheal cannula was connected to a constant volume respirator. The artificial respiration was conducted with an air volume per breath of 7~10 ml, a breath frequency of 60/min and a lung application pressure of 10 cm water. The volume of air overflowing from the legs on the cannula side was recorded on a polygraph (RM6100: product of Nihon Koden Co.) with a model 7020 bronchospasm transducer (product of Ugo Basile). Hydrochloride of the test compounds were dissolved in physiological saline, and inhalation was performed with reference to the method of Minami et al. […] The inhalation load apparatus was prepared by directly incorporating an ultrasonic nebulizer into an artificial respiration circuit (Omron ultrasonic aspirator NE-U11B, product of […] Electric Co.). The test compound (mg/0.5 ml) was administered by inhalation for 30 seconds, and after 2 minutes histamine (3 μg/kg) was intravenously administered and the air overflow volume was measured. The bronchoconstriction rate was calculated as a percentage with 100 being the height of contraction when the airway was completely constricted. The inhibition rate was calculated by dividing the contraction rate of the test compound group by the contraction rate of the control group.

Experiment [2] concerns platelet aggregation induced by arachidonic acid. Description: Inhibiting effect on platelet aggregation (in vitro), arachidonic acid as aggregating agent. In kind it is cell-based, Japanese white male house rabbits. Conditions: Oryctolagus cuniculus; arachidonic acid 68.6 μg/ml, 37° C., platelet suspension. The procedure:
(§1) Platelet rich plasma was prepared from Japanese white male house rabbits (body weight: 2.5~3.0 kg) following the method of Suzuki et al. (Suzuki, K. et al., The Clinical Report, Vol. 21, No. 13, p. 5263, 1987). The resulting platelet rich plasma solution was appropriately diluted with a Tris-Tyrode buffer solution (pH 7.4) to prepare a 4×10^5 platelet/μl platelet suspension to be used for the test. The platelet aggregation was measured using a platelet aggregometer (NBS Hematoracer 601, product of Nikoh Bioscience Co.). Specifically, 250 μl of the platelet suspension, 5 μl of a 96 mM calcium chloride solution and 5 μl of the test compound solution dissolved in methanol were added to a cuvette, and after incubating for one minute at 37° C., 20 μl of an aggregating agent was added and the maximum degree of aggregation occurring was determined. The aggregating agents used were platelet activating factor (PAF) (2.5 ng/ml) and arachidonic acid (68.6 μg/ml). The 50% inhibition concentration (IC50) was calculated from the results of measurement with various concentrations of each test compound.

In experiment [3] the test system is blood pressure of anesthetized rats. Description: Effect on blood pressure of anesthetized rats. Conditions: Rattus norvegicus, intravenous, diastolic, urethane anesthesia, read-out: Reduction of blood pressure (%). In kind it is in vivo, Male SD rats. How it is done: Male SD rats (body weight: 250~350 g, product of Nihon Crea Co.) were placed under urethane anesthesia and then a sphygmomanometric pressure transducer was inserted into the left cervical artery and recording was made on a polygraph (RM6100, product of Nihon Koden Co.) using a strain pressure […], product of Nihon Koden Co.). The test compounds were dissolved in physiological saline and administered intravenously. The change in blood pressure was indicated as the reduction rate from the initial value of diastolic blood pressure just prior to administration of the test compound.

The test system of experiment [4] is calcium contraction of the thoracic aorta. Description: Effect on calcium contraction (in vitro), thoracic aorta specimens. Conditions: Rattus norvegicus; 1×10^-7 M in dimethylsulfoxide; 0.3 mM calcium chloride, 80 mM KCl buffer. More on the design: species or system Male SD rats. How it is done:
This was investigated according to the method of Ishibashi, et al. (Ishibashi, A. et al., Folia Pharmacologica Japonica, Vol. 82, p. 361, 1983). Male SD rats of body weight approximately 300 g were used to prepare thoracic aorta extract specimens, which were suspended and immobilized in a organ bath containing 10 ml of Krebs-Henseleit buffer solution at 37° C. through which a mixed gas of oxygen (95%) and carbon dioxide (5%) had been passed. After equilibrating the specimens, they were equilibrated in a buffer solution without calcium chloride and then in an isotonic calcium-free 80 mM potassium chloride buffer solution replaced with potassium ions, and a resting tension of 0.2 g was applied. Contraction was induced by addition of 0.3 mM calcium chloride. The test compounds were added 10 minutes prior to addition of the calcium solution. The percent inhibition of the test compounds were calculated using the first contraction as the control (100% contraction). The test compounds were used for the test as solutions in dimethylsulfoxide at a 1×10^-7 M concentration.

The test system of experiment [5] is rat peripheral arterial occlusion models. Description: Effect on rat peripheral arterial occlusion models (5% lactic acid induced). Conditions: 5 mg/kg, i.v., lower leg lesions at 14 days. In kind it is in vivo, SD rats. How it is done: Models were prepared following the method of Iwamoto et al. (Iwamoto, M. et al., Japanese Pharmacology & Therapeutics, Vol. 14, Suppl. 5, p. 41, 1986). Upon minimal dissection of the femoral regions of SD rats (6 per group) with a body weight of 250~350 g under Nembutal anesthesia, 0.1 ml of 5% lactic acid was administered intraarterially. The rats were raised for 14 days under normal conditions, and observed for lesions of the lower legs. The grading for the lesions was: "1" for nigrities only at the nail tips, "2" for nigrities up to the digits, "3" for necrosis of the digits, and "4" deciduation of the digits. Each of the digits of the lower legs on the side where lactic acid had been administered were graded, and the overall grade was determined as the index of lesions. The disorder inhibition rate was determined by dividing the index of lesions in the drug-administered group by the index of lesions of the control group. The drugs were dissolved in physiological saline or dimethylsulfoxide, and injected through the caudal vein 5 minutes prior to injection of the 5% lactic acid.

In experiment [6] the test system is platelet aggregation induced by platelet activating factor (PAF). Description: Inhibiting effect on platelet aggregation (in vitro), platelet activating factor (PAF) as aggregating agent. In kind it is cell-based, Japanese white male house rabbits. Conditions: Oryctolagus cuniculus; PAF 2.5 ng/ml, 37° C., platelet suspension. How it is done: as §1

Counter-ions that a name gives are not always drawn.

`CC1=CC(N2CCC3(CC2)OCCO3)C(O)C(C)(C)CC1=O` (centres unmarked) [Example 26, 4-(1,4-dioxa-8-aza-spiro[5.4]decan-8-yl)-5-hydroxy-2,6,6-trimethyl-2-cyclohepten-1-one] had a Brochoconstriction inhibition rate in experiment [1] (3.0 mg/0.5 ml) of 53%. This molecule had an IC50 in experiment [2] of 36 µM.

Consider `CC1=CC(N2CCCCCC2)C(O)C(C)(C)CC1=O` (centres unmarked) [Example 17, 4-hexamethyleneimino-5-hydroxy-2,6,6-trimethyl-2-cyclohepten-1-one], for which, in experiment [3], the inhibition in vivo at 10 mg/kg was determined as 42%.

The molecule `CC1=CC(N2CCCCC2)C(O)C(C)(C)CC1=NO` (centres unmarked) [Example 30, 5-hydroxy-4-piperidino-2,6,6-trimethyl-2-cyclohepten-1-one oxime] registered a Brochoconstriction inhibition rate in experiment [1] (3.0 mg/0.5 ml) of 42%.

As for `CC1=CC(NC2CCCCC2)C(O)C(C)(C)CC1=O` (centres unmarked) [Example 8, 4-cyclohexylamino-5-hydroxy-2,6,6-trimethy-2-cyclohepten-1-one hydrochloride], the inhibition in vivo at 10 mg/kg in experiment [3] worked out at 45%.

`CCOC(=O)c1ccc(CNC2C=C(C)C(=O)CC(C)(C)C2O)cc1` (centres unmarked) [Example 4, 5-hydroxy-4-(4-ethoxycarbonylbenzylamino)-2,6,6-trimethyl-2-cyclohepten-1-one]: the inhibition at 0.1 µM in experiment [4] is 33%.

In experiment [2], `CC1=CC(NCc2ccccc2)C(O)C(C)(C)CC1=O` (centres unmarked) [Example 1, 4-benzylamino-5-hydroxy-2,6,6-trimethyl-2-cyclohepten-1-one] had an IC50 of 100 µM. The inhibition at 0.1 µM in experiment [4] worked out at 48%. In experiment [5] (in physiological saline), this molecule displayed an Inhibition rate of 42%.

The molecule `CC1=CC(Nc2ccccc2)C(O)C(C)(C)CC1=O` (centres unmarked) [Example 5, 5-hydroxy-4-phenylamino-2,6,6-trimethyl-2-cyclohepten-1-one] yielded an Inhibition rate in experiment [5] (in DMSO) of 35%.

`CCCCNC1C=C(C)C(=O)CC(C)(C)C1O.Cl` (centres unmarked) [Example 9, 4-(1-butylamino)-5-hydroxy-2,6,6-trimethyl-2-cyclohepten-1-one hydrochloride] yielded a Brochoconstriction inhibition rate in experiment [1] (1.0 mg/0.5 ml) of 57%. For the same molecule, in experiment [3], the inhibition in vivo at 1 mg/kg was 14%, the inhibition in vivo at 3 mg/kg is 32% and the inhibition in vivo at 10 mg/kg is 51%.

In turn, `CC1=CC(N2CCN(C)CC2)C(O)C(C)(C)CC1=O` (centres unmarked) [Example 22, 5-hydroxy-4-(4-methylpiperazino)-2,6,6-trimethyl-2-cyclohepten-1-one] registered a Brochoconstriction inhibition rate in experiment [1] (3.0 mg/0.5 ml) of 17%. Further, the inhibition at 0.1 µM in experiment [4] worked out at 48%.

As for `COCCNC1C=C(C)C(=O)CC(C)(C)C1O` (centres unmarked) [Example 10, 5-hydroxy-4-(2-methoxyethylamino)-2,6,6-trimethyl-2-cyclohepten-1-one], the inhibition at 0.1 µM in experiment [4] came out at 32%.

Take `CC1=CC(N2CCCCC2)C(O)C(C)(C)CC1=O` (single isomer, unassigned; (-)) [(-) Compound of Example 35, (-)-5-hydroxy-4-piperidino-2,6,6-trinethyl-2-cyclohepten-1-one]: the Brochoconstriction inhibition rate in experiment [1] (10.0 mg/0.5 ml) was determined as 64%.

Molecule `CC1=CC(N(C)Cc2ccccc2)C(O)C(C)(C)CC1=O` (centres unmarked) [Example 28, 5-hydroxy-4-(N-methylbenzylamino)-2,6,6-trimethyl-2-cyclohepten-1-one] displayed an IC50 in experiment [2] of 11 µM. This counts as double-digit micromolar.

In the case of `CCN(CC)C1C=C(C)C(=O)CC(C)(C)C1O` (centres unmarked) [Example 13, 4-diethylamino-5-hydroxy-2,6,6-trimethyl-2-cyclohepten-1-one], in experiment [3], the inhibition in vivo at 10 mg/kg turned out to be 28%.

In experiment [6], `CC1=CC(N2CCOCC2)C(O)C(C)(C)CC1=O` (centres unmarked) [Example 18, 5-hydroxy-4-morpholino-2,6,6-trimethyl-2-cyclohepten-1-one] had a half-inhibitory concentration (IC50) of 98 µM. Moreover, the inhibition at 0.1 µM in experiment [4] was 39%.

For `CC1=CC(NCCc2ccccc2)C(O)C(C)(C)CC1=O` (centres unmarked) [Example 2, 4-(2-phenylethylamino)-5-hydroxy-2,6,6-trimethyl-2-cyclohepten-1-one], in experiment [3], the inhibition in vivo at 1 mg/kg was 16% and the inhibition in vivo at 3 mg/kg is 31%.

Take `CC1=CC(NC(C)(C)C)C(O)C(C)(C)CC1=O` (centres unmarked) [Example 12, 5-hydroxy-4-(tert-butylamino)-2,6,6-trimethyl-2-cyclohepten-1-one]: the inhibition in vivo at 10 mg/kg in experiment [3] worked out at 33%.

Take `CC1=CC(N2CCCC2)C(O)C(C)(C)CC1=O.Cl` (centres unmarked) [Example 15, 5-hydroxy-4-pyrrolidino-2,6,6-trimethyl-2-cyclohepten-1-one hydrochloride]: the Brochoconstriction inhibition rate in experiment [1] (3.0 mg/0.5 ml) was found to be 73%. Further, the inhibition in vivo at 10 mg/kg in experiment [3] was found to be 26%.

For `CC1=CC(N2CCC(O)CC2)C(O)C(C)(C)CC1=O` (centres unmarked) [Example 23, 4-(4-hydroxypiperidino)-5-hydroxy-2,6,6-trimethyl-2-cyclohepten-1-one], the Brochoconstriction inhibition rate in experiment [1] (3.0 mg/0.5 ml) was 23%.

Take `CC1=CC(NC2CCCC2)C(O)C(C)(C)CC1=O` (centres unmarked) [Example 7, 4-cyclopentylamino-5-hydroxy-2,6,6-trimethyl-2-cyclohepten-1-one hydrochloride]: in experiment [3], the inhibition in vivo at 10 mg/kg stood at 34%.

The IC50 is the point on the concentration scale where inhibition reaches its midpoint. A word on the inhibition: it is how much of the control response was suppressed.

The values are drawn from patent US5849801A, “4-amino-5-oxy-2,6,6-trimethyl-2-cycloheptene compounds” (Tokyo Tanabe Company Limited, priority 1995, dated 1998).
